Test results taken from ChEMBL document CHEMBL3885861, “Open TG-GATES”.

Species on record: Rattus norvegicus
Assay: Open TG-GATES - Regimen: Daily Repeat
Format: toxicity, organism-based, Sprague-Dawley
Parameters: regimen Daily Repeat, gender Male, age 6 weeks
Settings: in vivo, po, 100 mg/kg, route gavage, dose level High; for APTT / Bas / Eos / Fbg / Hb / Ht / Lym / MCH / MCHC / MCV / Mono / Neu / PT / Plat / RBC / Ret / WBC: tissue Blood; for KIDNEY_L / KIDNEY_R / KIDNEY_TOTAL: tissue Kidney; for LIVER: tissue Liver; for A/G / ALP / ALT / AST / BUN / CRE / Ca / Cl / DBIL / GLC / IP / K / LDH / Na / PL / RALB / TBIL / TC / TG / TP / gamma-GTP: tissue Plasma

Nc1ccc(Cc2ccc(N)cc2)cc1
TERMINAL_BW (72 h, time 3 day): 208.1 g | APTT (72 h, time 3 day): 17.9 s | Bas (72 h, time 3 day): 0.6% | Eos (72 h, time 3 day): 1% | Fbg (72 h, time 3 day): 405.8 mg/dL | Hb (72 h, time 3 day): 12.8 g/dL | Ht (72 h, time 3 day): 35.9% | Lym (72 h, time 3 day): 66.8% | MCH (72 h, time 3 day): 19.9 pg | MCHC (72 h, time 3 day): 35.8% | MCV (72 h, time 3 day): 55.5 fL | Mono (72 h, time 3 day): 6.2% | Neu (72 h, time 3 day): 25.2% | PT (72 h, time 3 day): 12 s | Plat (72 h, time 3 day): 166 x10_4/uL | RBC (72 h, time 3 day): 646 x10_4/ul | Ret (72 h, time 3 day): 4.3% | WBC (72 h, time 3 day): 223.6 x10_2/uL | KIDNEY_L (72 h, time 3 day): 1 g | KIDNEY_R (72 h, time 3 day): 1 g | KIDNEY_TOTAL (72 h, time 3 day): 2 g | LIVER (72 h, time 3 day): 11.6 g | A/G (72 h, time 3 day): 0.6 | ALP (72 h, time 3 day): 3437 IU/L | ALT (72 h, time 3 day): 290.2 IU/L | AST (72 h, time 3 day): 509.2 IU/L | BUN (72 h, time 3 day): 12.6 mg/dL | CRE (72 h, time 3 day): 0.2 mg/dL | Ca (72 h, time 3 day): 11.3 mg/dL | Cl (72 h, time 3 day): 103.8 meq/L | DBIL (72 h, time 3 day): 1.3 mg/dL | GLC (72 h, time 3 day): 145.2 mg/dL | IP (72 h, time 3 day): 7.3 mg/dL | K (72 h, time 3 day): 4.7 meq/L | LDH (72 h, time 3 day): 160.6 IU/L | Na (72 h, time 3 day): 141.6 meq/L | PL (72 h, time 3 day): 325.8 mg/dL | RALB (72 h, time 3 day): 2.3 g/dL | TBIL (72 h, time 3 day): 2.7 mg/dL | TC (72 h, time 3 day): 221 mg/dL | TG (72 h, time 3 day): 69.4 mg/dL | TP (72 h, time 3 day): 5.9 g/dL | gamma-GTP (72 h, time 3 day): 7.8 IU/L | TERMINAL_BW ([…], time 7 day): 235.7 g | TERMINAL_BW ([…], time 14 day): 264.2 g | TERMINAL_BW ([…], time 28 day): 273.7 g | APTT ([…], time 7 day): 17.6 s | Bas ([…], time 7 day): 0.6% | Eos ([…], time 7 day): 0.6% | Fbg ([…], time 7 day): 273.8 mg/dL | Hb ([…], time 7 day): 12.4 g/dL | Ht ([…], time 7 day): 34.8% | Lym ([…], time 7 day): 66.6% | MCH ([…], time 7 day): 19.7 pg | MCHC ([…], time 7 day): 35.6% | MCV ([…], time 7 day): 55.2 fL | Mono ([…], time 7 day): 5.8% | Neu ([…], time 7 day): 25.8% | PT ([…], time 7 day): 12.5 s | Plat ([…], time 7 day): 193.4 x10_4/uL | RBC ([…], time 7 day): 631 x10_4/ul | Ret ([…], time 7 day): 7.9% | WBC ([…], time 7 day): 238.1 x10_2/uL | APTT ([…], time 14 day): 21.7 s | Bas ([…], time 14 day): 1% | Eos ([…], time 14 day): 1% | Fbg ([…], time 14 day): 292.2 mg/dL | Hb ([…], time 14 day): 11.9 g/dL | Ht ([…], time 14 day): 33.6% | Lym ([…], time 14 day): 69.4% | MCH ([…], time 14 day): 19.8 pg | MCHC ([…], time 14 day): 35.4% | MCV ([…], time 14 day): 56 fL | Mono ([…], time 14 day): 5.6% | Neu ([…], time 14 day): 22.8% | PT ([…], time 14 day): 13 s | Plat ([…], time 14 day): 166.6 x10_4/uL | RBC ([…], time 14 day): 601.8 x10_4/ul | Ret ([…], time 14 day): 8.1% | WBC ([…], time 14 day): 308 x10_2/uL | APTT ([…], time 28 day): 37.8 s | Bas ([…], time 28 day): 0.8% | Eos ([…], time 28 day): 1% | Fbg ([…], time 28 day): 275.8 mg/dL | Hb ([…], time 28 day): 12.1 g/dL | Ht ([…], time 28 day): 33.5% | Lym ([…], time 28 day): 67.2% | MCH ([…], time 28 day): 18.4 pg | MCHC ([…], time 28 day): 36.1% | MCV ([…], time 28 day): 51.2 fL | Mono ([…], time 28 day): 4% | Neu ([…], time 28 day): 26.6% | PT ([…], time 28 day): 15.2 s | Plat ([…], time 28 day): 121.3 x10_4/uL | RBC ([…], time 28 day): 654 x10_4/ul | Ret ([…], time 28 day): 5.8% | WBC ([…], time 28 day): 304.5 x10_2/uL | KIDNEY_L ([…], time 7 day): 1 g | KIDNEY_R ([…], time 7 day): 1 g | KIDNEY_TOTAL ([…], time 7 day): 2 g | KIDNEY_L ([…], time 14 day): 1 g | KIDNEY_R ([…], time 14 day): 1.1 g | KIDNEY_TOTAL ([…], time 14 day): 2.1 g | KIDNEY_L ([…], time 28 day): 1.1 g | KIDNEY_R ([…], time 28 day): 1 g | KIDNEY_TOTAL ([…], time 28 day): 2.1 g | LIVER ([…], time 7 day): 13.1 g | LIVER ([…], time 14 day): 16.2 g | LIVER ([…], time 28 day): 14.1 g | A/G ([…], time 7 day): 0.6 | ALP ([…], time 7 day): 3310.8 IU/L | ALT ([…], time 7 day): 96.2 IU/L | AST ([…], time 7 day): 198.8 IU/L | BUN ([…], time 7 day): 13 mg/dL | CRE ([…], time 7 day): 0.2 mg/dL | Ca ([…], time 7 day): 11.6 mg/dL | Cl ([…], time 7 day): 103.8 meq/L | DBIL ([…], time 7 day): 0.9 mg/dL | GLC ([…], time 7 day): 148.4 mg/dL | IP ([…], time 7 day): 6.9 mg/dL | K ([…], time 7 day): 4.4 meq/L | LDH ([…], time 7 day): 95 IU/L | Na ([…], time 7 day): 143.6 meq/L | PL ([…], time 7 day): 213.6 mg/dL | RALB ([…], time 7 day): 2.4 g/dL | TBIL ([…], time 7 day): 1.7 mg/dL | TC ([…], time 7 day): 135 mg/dL | TG ([…], time 7 day): 48.6 mg/dL | TP ([…], time 7 day): 6.1 g/dL | gamma-GTP ([…], time 7 day): 6 IU/L | A/G ([…], time 14 day): 0.5 | ALP ([…], time 14 day): 2423.6 IU/L | ALT ([…], time 14 day): 91.4 IU/L | AST ([…], time 14 day): 260 IU/L | BUN ([…], time 14 day): 17.6 mg/dL | CRE ([…], time 14 day): 0.2 mg/dL | Ca ([…], time 14 day): 11.4 mg/dL | Cl ([…], time 14 day): 103.6 meq/L | DBIL ([…], time 14 day): 0.7 mg/dL | GLC ([…], time 14 day): 143.6 mg/dL | IP ([…], time 14 day): 6.4 mg/dL | K ([…], time 14 day): 4.1 meq/L | LDH ([…], time 14 day): 143.8 IU/L | Na ([…], time 14 day): 143.6 meq/L | PL ([…], time 14 day): 226.4 mg/dL | RALB ([…], time 14 day): 2.5 g/dL | TBIL ([…], time 14 day): 1.6 mg/dL | TC ([…], time 14 day): 165.4 mg/dL | TG ([…], time 14 day): 49.6 mg/dL | TP ([…], time 14 day): 7 g/dL | gamma-GTP ([…], time 14 day): 8 IU/L | A/G ([…], time 28 day): 0.5 | ALP ([…], time 28 day): 3009.6 IU/L | ALT ([…], time 28 day): 116.6 IU/L | AST ([…], time 28 day): 300 IU/L | BUN ([…], time 28 day): 19.2 mg/dL | CRE ([…], time 28 day): 0.3 mg/dL | Ca ([…], time 28 day): 11.5 mg/dL | Cl ([…], time 28 day): 102 meq/L | DBIL ([…], time 28 day): 0.6 mg/dL | GLC ([…], time 28 day): 144 mg/dL | IP ([…], time 28 day): 5.6 mg/dL | K ([…], time 28 day): 4 meq/L | LDH ([…], time 28 day): 108.6 IU/L | Na ([…], time 28 day): 146.2 meq/L | PL ([…], time 28 day): 158.4 mg/dL | RALB ([…], time 28 day): 2.5 g/dL | TBIL ([…], time 28 day): 1.7 mg/dL | TC ([…], time 28 day): 113.4 mg/dL | TG ([…], time 28 day): 33.2 mg/dL | TP ([…], time 28 day): 7.6 g/dL | gamma-GTP ([…], time 28 day): 7.2 IU/L
